{"source": "patent US20190255091A1", "about": "“RNAi AGENTS FOR [sequence] B VIRUS INFECTION” (priority 2016, published 2019)", "key": {"[1]": {"system": "Hepatitis B Virus (HBV)", "assay": "Serum HBV DNA levels in pHBV model mice (qPCR)", "assay_type": "in vivo", "conditions": "single s.c. injection day 1, Example 7", "source_text": "(§1) Six to eight-week-old female NOD.CB17-Prkdscid/NcrCrl (NOD-SCID) mice were transiently transfected in vivo with MC-HBV1.3 by hydrodynamic tail vein injection (Yang P L et al. “Hydrodynamic injection of viral DNA: a mouse model of acute hepatitis B virus infection,” PNAS USA 2002 Vol. 99: p. 13825-13830), administered 30 to 45 days prior to administration of an HBV RNAi agent or control. MC-HBV1.3 is a plasmid-derived minicircle that contains the same terminally redundant human hepatitis B virus sequence HBV1.3 as in plasmid pHBV1.3 and in the HBV1.3.32 transgenic mice (GenBank accession #V01460) (Guidotti L G et al., “High-level hepatitis B virus replication in transgenic mice,” J Virol 1995 Vol. 69, p 6158-6169.). 5 or 10 μg MC-HBV1.3 in Ringer's Solution in a total volume of 10% of the animal's body weight was injected into mice via tail vein to create pHBV model of chronic HBV infection. The solution was injected through a 27-gauge needle in 5-7 seconds as previously described (Zhang G et al., “High levels of foreign gene expression in hepatocytes after tail vein injection of naked plasmid DNA.” Human Gene Therapy 1999 Vol. 10, p 1735-1737.). At pre-dose (either day 1 pre-dose, day −1, or day −2), Hepatitis B surface antigen (HBsAg) HBsAg expression levels in serum were measured by ELISA and the mice were grouped according to average HBsAg expression levels.\n(§2) HBV expression levels were normalized to pre-administration expression levels and to control mice injected with phosphate buffered saline (“PBS”).\nEqual volumes of serum from mice in a group or subgroup were pooled to a final volume of 100 μL. DNA was isolated from serum samples using the QIAamp MinElute Virus Spin Kit (Qiagen, Valencia, Calif.) following the manufacturer's instructions. Sterile 0.9% saline was added to each sample to a final volume of 200 μL. Serum samples were added to tubes containing buffer and protease. Carrier RNA was added to aid in the isolation of small amounts of DNA. […] After incubating 15 min at 56° C., nucleic acids were precipitated from the lysates with ethanol and the entire solution applied to a column. After washing, the samples were eluted into a volume of 50 μL Buffer AVE.\nThe number of copies of HBV genomes in DNA isolated from the pHBV mouse model serum was determined by qPCR. Plasmid pSEAP-HBV353-777, encoding a short segment of the HBV genome within the S gene (bases 353-777 of GenBank accession #V01460), was used to create a six log standard curve. Samples with recovery of DNA below 2 standard deviations from the average, based on detection of pHCR/UbC-SEAP were omitted. TaqMan chemistry-based primers and probes with fluor/ZEN/IBFQ are utilized.\nqPCR assays were performed on a 7500 Fast or StepOne Plus Real-Time PCR system (Life Technologies). For evaluation of HBV DNA in serum, DNA was isolated from singlet or duplicate purification steps from pooled group serum samples. Quantitations of HBV DNA and recovery control plasmid were determined by qPCR reactions performed in triplicate. The probes to quantitate HBV and pHCR/UbC-SEAP were included in each reaction."}, "[2]": {"system": "Hepatitis B Virus (HBV)", "assay": "Serum HBeAg levels in pHBV model mice (ELISA)", "assay_type": "in vivo", "parameters": "key to Average HBeAg levels normalized to pre-treatment and PBS control: ratio to pre-treatment level, divided by PBS control ratio", "conditions": "for Average HBeAg fold knockdown normalized to pre-treatment and PBS control / Average HBeAg levels normalized to pre-treatment and PBS control: single s.c. injection day 1, Example 7; for Average HBeAg levels normalized to pre-treatment and PBS control: pooled serum", "source_text": "as §1, §2\nHBeAg analysis was performed with the HBeAg enzyme linked immunosorbent assay (ELISA) as described by the manufacturer (DiaSorin) using serum diluted 4- to 20-fold in 5% nonfat dry milk. The amount of antigen was determined in the linear range of the assay and quantitated against HBeAg protein standards (Fitzgerald Industries International, catalog #30-AH18, Acton, Mass.).\nHBeAg expression for each animal was normalized to the control group of mice injected with PBS in order to account for the non-treatment related decline in expression of MC-HBV1.3. For evaluation of HBeAg in serum, HBeAg is analyzed from pooled group or subgroup serum samples. First, the HBeAg level for each pooled group or subgroup was divided by the pre-treatment level of expression in the same group or subgroup in order to determine the ratio of expression “normalized to pre-treatment”. Expression at a specific time point was then normalized to the control group by dividing the “normalized to pre-treatment” ratio for a group or subgroup by the average “normalized to pre-treatment” ratio of all samples from the normal PBS control group."}}, "data": [{"substance": "AD04982: HBV RNAi agent duplex AM06464-AS/AM06150-SS (antisense UACCAAUUUAUGCCUACAGCC; sense GGCUGUAGGCAUAAAUUGGUA; chemistry not fully specified)", "values": [{"measurement": "Average Serum HBV DNA levels normalized to pre-treatment and PBS control", "setting": "[1]; Day 8, 1.0 mg/kg", "result": "0.358 ± 0.207"}, {"measurement": "Average Serum HBV DNA levels normalized to pre-treatment and PBS control", "setting": "[1]; Day 8, 2.0 mg/kg", "result": "0.516 ± 0.163"}, {"measurement": "Average Serum HBV DNA levels normalized to pre-treatment and PBS control", "setting": "[1]; Day 15, 1.0 mg/kg", "result": "0.428 ± 0.073"}, {"measurement": "Average Serum HBV DNA levels normalized to pre-treatment and PBS control", "setting": "[1]; Day 15, 2.0 mg/kg", "result": "0.523 ± 0.264"}, {"measurement": "Average Serum HBV DNA levels normalized to pre-treatment and PBS control", "setting": "[1]; Day 22, 1.0 mg/kg", "result": "0.433 ± 0.220"}, {"measurement": "Average Serum HBV DNA levels normalized to pre-treatment and PBS control", "setting": "[1]; Day 22, 2.0 mg/kg", "result": "0.244 ± 0.123"}, {"measurement": "Average Serum HBV DNA levels normalized to pre-treatment and PBS control", "setting": "[1]; Day 29, 1.0 mg/kg", "result": "0.474 ± 0.090"}, {"measurement": "Average Serum HBV DNA levels normalized to pre-treatment and PBS control", "setting": "[1]; Day 29, 2.0 mg/kg", "result": "0.241 ± 0.085"}, {"measurement": "Average Serum HBV DNA levels normalized to pre-treatment and PBS control", "setting": "[1]; Day 36, 1.0 mg/kg", "result": "0.509 ± 0.163"}, {"measurement": "Average Serum HBV DNA levels normalized to pre-treatment and PBS control", "setting": "[1]; Day 36, 2.0 mg/kg", "result": "0.543 ± 0.079"}, {"measurement": "Average HBeAg fold knockdown normalized to pre-treatment and PBS control", "setting": "[2]; Day 8, 1.0 mg/kg", "result": 2.1, "unit": "Fold KD"}, {"measurement": "Average HBeAg levels normalized to pre-treatment and PBS control", "setting": "[2]; Day 8, 1.0 mg/kg", "result": 0.471}, {"measurement": "Average HBeAg fold knockdown normalized to pre-treatment and PBS control", "setting": "[2]; Day 8, 2.0 mg/kg", "result": 3.0, "unit": "Fold KD"}, {"measurement": "Average HBeAg levels normalized to pre-treatment and PBS control", "setting": "[2]; Day 8, 2.0 mg/kg", "result": 0.335}, {"measurement": "Average HBeAg fold knockdown normalized to pre-treatment and PBS control", "setting": "[2]; Day 15, 1.0 mg/kg", "result": 2.4, "unit": "Fold KD"}, {"measurement": "Average HBeAg levels normalized to pre-treatment and PBS control", "setting": "[2]; Day 15, 1.0 mg/kg", "result": 0.424}, {"measurement": "Average HBeAg fold knockdown normalized to pre-treatment and PBS control", "setting": "[2]; Day 15, 2.0 mg/kg", "result": 3.2, "unit": "Fold KD"}, {"measurement": "Average HBeAg levels normalized to pre-treatment and PBS control", "setting": "[2]; Day 15, 2.0 mg/kg", "result": 0.310}, {"measurement": "Average HBeAg fold knockdown normalized to pre-treatment and PBS control", "setting": "[2]; Day 22, 1.0 mg/kg", "result": 1.8, "unit": "Fold KD"}, {"measurement": "Average HBeAg levels normalized to pre-treatment and PBS control", "setting": "[2]; Day 22, 1.0 mg/kg", "result": 0.562}, {"measurement": "Average HBeAg fold knockdown normalized to pre-treatment and PBS control", "setting": "[2]; Day 22, 2.0 mg/kg", "result": 2.4, "unit": "Fold KD"}, {"measurement": "Average HBeAg levels normalized to pre-treatment and PBS control", "setting": "[2]; Day 22, 2.0 mg/kg", "result": 0.411}, {"measurement": "Average HBeAg fold knockdown normalized to pre-treatment and PBS control", "setting": "[2]; Day 29, 1.0 mg/kg", "result": 2.0, "unit": "Fold KD"}, {"measurement": "Average HBeAg levels normalized to pre-treatment and PBS control", "setting": "[2]; Day 29, 1.0 mg/kg", "result": 0.513}, {"measurement": "Average HBeAg fold knockdown normalized to pre-treatment and PBS control", "setting": "[2]; Day 29, 2.0 mg/kg", "result": 2.3, "unit": "Fold KD"}, {"measurement": "Average HBeAg levels normalized to pre-treatment and PBS control", "setting": "[2]; Day 29, 2.0 mg/kg", "result": 0.442}, {"measurement": "Average HBeAg fold knockdown normalized to pre-treatment and PBS control", "setting": "[2]; Day 36, 1.0 mg/kg", "result": 1.4, "unit": "Fold KD"}, {"measurement": "Average HBeAg levels normalized to pre-treatment and PBS control", "setting": "[2]; Day 36, 1.0 mg/kg", "result": 0.705}, {"measurement": "Average HBeAg fold knockdown normalized to pre-treatment and PBS control", "setting": "[2]; Day 36, 2.0 mg/kg", "result": 2.0, "unit": "Fold KD"}, {"measurement": "Average HBeAg levels normalized to pre-treatment and PBS control", "setting": "[2]; Day 36, 2.0 mg/kg", "result": 0.500}, {"measurement": "fold decrease of HBeAg", "setting": "[2]; Example 7 Group D, 2.0 mg/kg AD04982, day 15", "result": 3.2, "unit": "fold"}]}]}
